Consider 32 compounds from ChEMBL document CHEMBL6182905, “Fluorinated sulfonamide-flavonoid derivatives as novel Keap1-Nrf2 inhibitors: Potent induction of cytoprotective gene HO-1 in vivo” (Eur J Med Chem, 2025).

The test system of the test is AML12. Description: Activation of Nrf2 in LPS-stimulated mouse AML12 cells assessed as fold increase in HO-1 gene expression at 10 uM incubated for 16 hrs. The class given is cell-based. As to conditions: filed as activator.
Take `O=C1C[C@@H](c2ccc(O)cc2)Oc2cc(O)ccc21`: the fold change (FC) was 2. As for `COc1ccc(-c2cc(=O)c3ccc(NS(=O)(=O)c4cccs4)cc3o2)cc1`, the figure is 3.4.

With `COc1ccc(-c2cc(=O)c3ccc(NS(=O)(=O)c4ccc(C)cc4)cc3o2)cc1`, the fold change (FC) is 3.1. With `COc1ccc(-c2cc(=O)c3ccc(NS(=O)(=O)c4ccc(OC)cc4)cc3o2)cc1`, the fold change (FC) was 4.6. For `O=C1c2c(O)cc(O)cc2O[C@H](c2cc(O)c(O)c(O)c2)[C@H]1O`, the fold change (FC) is 1.4. With `COc1ccc(-c2cc(=O)c3ccc(NS(=O)(=O)c4c(C)c(C)cc(C)c4C)cc3o2)cc1`, the fold change (FC) stood at 2.8. As for `COc1ccc(-c2cc(=O)c3ccc(NS(=O)(=O)c4ccccc4F)cc3o2)cc1`, the figure is 3.4; as for `COc1ccc(-c2cc(=O)c3ccc(NS(=O)(=O)c4ccc(F)c(Cl)c4)cc3o2)cc1`, 4.

On to `COc1ccc(-c2cc(=O)c3ccc(NS(=O)(=O)c4ccccc4OC)cc3o2)cc1`, for which the fold change (FC) came out at 3.3. As for `COc1ccc(-c2cc(=O)c3ccc(NS(=O)(=O)c4ccc(C(C)C)cc4)cc3o2)cc1`, the figure is 3.4. In the case of `COc1ccc(-c2cc(=O)c3ccc(NS(=O)(=O)c4ccc(F)cc4Cl)cc3o2)cc1` it was 3.6; in that of `COc1ccc(-c2cc(=O)c3ccc(NS(=O)(=O)c4cccc(OC)c4)cc3o2)cc1`, 3.7.

As to `C[S+]([O-])CCCCN=C=S` (configuration not stated), the fold change (FC) was 5.8.

In the case of `COc1ccc(-c2cc(=O)c3ccc(NS(=O)(=O)c4cccnc4)cc3o2)cc1`, the fold change (FC) worked out at 5.3.

Regarding `COc1ccc(-c2cc(=O)c3ccc(NS(=O)(=O)c4ccc(OC)cc4OC)cc3o2)cc1`, the fold change (FC) turned out to be 4. As to `COc1ccc(-c2cc(=O)c3ccc(NS(=O)(=O)c4ccc([N+](=O)[O-])cc4)cc3o2)cc1`, the fold change (FC) came out at 3.3.

In the case of `CCCCOc1ccc(S(=O)(=O)Nc2ccc3c(=O)cc(-c4ccc(OC)cc4)oc3c2)cc1`, the fold change (FC) was 2.3. In the case of `COc1ccc(-c2cc(=O)c3ccc(NS(=O)(=O)c4ccc(OC(F)(F)F)cc4)cc3o2)cc1` it was 7; in that of `COc1ccc(-c2cc(=O)c3ccc(NS(=O)(=O)c4cccc(F)c4)cc3o2)cc1`, 4.5; in that of `COc1ccc(-c2cc(=O)c3ccc(N(CC(N)=O)S(=O)(=O)c4ccc(OC)cc4)cc3o2)cc1`, 2.3. As to `COc1ccc(-c2cc(=O)c3ccc(NS(=O)(=O)c4ccc(C(F)(F)F)cc4)cc3o2)cc1`, the fold change (FC) was found to be 4.8.

For `COc1ccc(-c2cc(=O)c3ccc(NS(=O)(=O)c4ccc(F)c(Br)c4)cc3o2)cc1`, the fold change (FC) amounted to 4.2. As for `COC(=O)CN(c1ccc2c(=O)cc(-c3ccc(OC)cc3)oc2c1)S(=O)(=O)c1ccc(OC)cc1`, the figure is 3.5; as for `O=c1c(O)c(-c2ccc(O)c(O)c2)oc2cc(O)cc(O)c12`, 1.4. In the case of `CCc1ccc(S(=O)(=O)Nc2ccc3c(=O)cc(-c4ccc(OC)cc4)oc3c2)cc1` it was 5; in that of `COC(=O)CN(c1ccc2c(=O)cc(-c3ccc(OC)cc3)oc2c1)S(=O)(=O)c1ccc(F)cc1`, 4.8. Turning to `COC(=O)CN(c1ccc2c(=O)cc(-c3ccc(OC)cc3)oc2c1)S(=O)(=O)c1ccc(C(F)(F)F)cc1`, the fold change (FC) came to 2.6. Turning to `COc1ccc(-c2cc(=O)c3ccc(NS(=O)(=O)c4ccc(F)cc4Br)cc3o2)cc1`, the fold change (FC) is 3.2. In the case of `COc1ccc(-c2cc(=O)c3ccc(NS(=O)(=O)c4cccc(OC(F)(F)F)c4)cc3o2)cc1`, the fold change (FC) came to 4.2. In the case of `COc1ccc(-c2cc(=O)c3ccc(NS(=O)(=O)c4ccccc4OC(F)(F)F)cc3o2)cc1` it was 3.9. As for `O=c1cc(-c2ccc(O)cc2)oc2cc(O)cc(O)c12`, the figure is 1.8; as for `COc1ccc(-c2cc(=O)c3ccc(NS(=O)(=O)c4ccc(C)cc4C)cc3o2)cc1`, 3.
